Source: patent US12180187B2, “1-phenyl-5-azinylpyrazolyl-3-oxyalkyl acids and their use for controlling unwanted plant growth” (BAYER AKTIENGESELLSCHAFT, priority 2019, dated 2024)
Values joined by “and” are separate entries in the source; they are usually repeats but may differ in a detail not shown here. Equal values may be shown once.

Legend:
AMARE [1] = experiment: Pre-emergence action against AMARE, 1280 g/ha; assay type: in vivo, Amaranthus retroflexus; conditions: scored visually after about 3 weeks vs untreated controls (100% = plants have died)
Procedure, shortened: (§1)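 Visual percent-effect ratings (0% = like control, 100% = plants dead) were taken about 3 weeks after pre-emergence soil-surface application of WP/EC aqueous formulations with 0.5% additive, 600 L water/ha. Seeds were sown in sandy loam and grown in the greenhouse.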

VIOTR = experiment: Pre-emergence action at 320 g/ha against VIOTR; assay type: in vivo, Viola tricolor; conditions: dosage 320 g/ha
Procedure, shortened: (§2)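 Visual % scoring at about 3 weeks post-treatment against untreated pots (0% = like control, 100% = dead), greenhouse-grown. Compounds applied at 320 g/ha as aqueous WP/EC suspension or emulsion plus 0.5% additive, 600 l/ha water, onto covering soil of freshly sown pots before emergence.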

AMARE [2] = experiment: Pre-emergence action at 320 g/ha against AMARE; assay type: in vivo, Amaranthus retroflexus; conditions: visual scoring after about 3 weeks vs untreated controls
Procedure, shortened: as §2

VERPE [3] = experiment: Pre-emergence action at 320 g/ha against VERPE; assay type: in vivo, Veronica persica; conditions: visual scoring after about 3 weeks vs untreated controls
Procedure, shortened: as §2

VERPE [4] = experiment: Post-emergence action against VERPE, 1.28 kg/ha; assay type: in vivo, Veronica persica; conditions: dosage 1280 g/ha, visual rating about 3 weeks after treatment vs untreated controls (100% = plants died)
Procedure, shortened: (§3)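 Post-emergence greenhouse spray, one-leaf stage (2–3 wk after sowing), sandy loam. WP/EC, aqueous + 0.5% additive, 600 L/ha water. Visual % activity vs untreated, ~3 wk after treatment; 100% = plants dead.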

ABUTH [5] = experiment: Pre-emergence action against ABUTH, 1280 g/ha; assay type: in vivo, Abutilon theophrasti; conditions: scored visually after about 3 weeks vs untreated controls (100% = plants have died)
Procedure, shortened: as §1

LOLRI [6] = experiment: Post-emergence action against LOLRI, 1.28 kg/ha; assay type: in vivo, Lolium rigidum; conditions: dosage 1280 g/ha, visual rating about 3 weeks after treatment vs untreated controls
Procedure, shortened: as §3

POAAN [7] = experiment: Post-emergence action against POAAN, 1.28 kg/ha; assay type: in vivo, Poa annua; conditions: dosage 1280 g/ha, visual rating about 3 weeks after treatment vs untreated controls
Procedure, shortened: as §3

MATIN [8] = experiment: Post-emergence action against MATIN, 1.28 kg/ha; assay type: in vivo, Tripleurospermum inodorum (Matricaria inodora); conditions: dosage 1280 g/ha, visual rating about 3 weeks after treatment vs untreated controls (100% = plants died)
Procedure, shortened: as §3

KCHSC [9] = experiment: Post-emergence action against KCHSC, 1.28 kg/ha; assay type: in vivo, Bassia scoparia; conditions: dosage 1280 g/ha, visual rating about 3 weeks after treatment vs untreated controls (100% = plants died)
Procedure, shortened: as §3

DIGSA [10] = experiment: Post-emergence action against DIGSA, 1.28 kg/ha; assay type: in vivo, Digitaria sanguinalis; conditions: dosage 1280 g/ha, visual rating about 3 weeks after treatment vs untreated controls
Procedure, shortened: as §3

MATIN [11] = experiment: Pre-emergence action at 320 g/ha against MATIN; assay type: in vivo, Tripleurospermum inodorum (Matricaria inodora); conditions: visual scoring after about 3 weeks vs untreated controls
Procedure, shortened: as §2

AMARE [12] = experiment: Post-emergence action against AMARE, 1.28 kg/ha; assay type: in vivo, Amaranthus retroflexus; conditions: dosage 1280 g/ha, visual rating about 3 weeks after treatment vs untreated controls (100% = plants died)
Procedure, shortened: as §3

LOLRI [13] = experiment: Pre-emergence action against LOLRI, 1280 g/ha; assay type: in vivo, Lolium rigidum; conditions: visual scoring after about 3 weeks vs untreated controls, 100% = plants have died, 0% = like control plants
Procedure, shortened: as §1

STEME [14] = experiment: Post-emergence action against STEME, 1.28 kg/ha; assay type: in vivo, Stellaria media; conditions: dosage 1280 g/ha, visual rating about 3 weeks after treatment vs untreated controls (100% = plants died)
Procedure, shortened: as §3

SETVI [15] = experiment: Pre-emergence action against SETVI, 1280 g/ha; assay type: in vivo, Setaria viridis; conditions: visual scoring after about 3 weeks vs untreated controls, 100% = plants have died, 0% = like control plants
Procedure, shortened: as §1

STEME [16] = experiment: Pre-emergence action against STEME, 1280 g/ha; assay type: in vivo, Stellaria media; conditions: scored visually after about 3 weeks vs untreated controls (100% = plants have died)
Procedure, shortened: as §1

VERPE [17] = experiment: Pre-emergence action against VERPE, 1280 g/ha; assay type: in vivo, Veronica persica; conditions: scored visually after about 3 weeks vs untreated controls (100% = plants have died)
Procedure, shortened: as §1

ALOMY [18] = experiment: Pre-emergence action against ALOMY, 1280 g/ha; assay type: in vivo, Alopecurus myosuroides; conditions: visual scoring after about 3 weeks vs untreated controls, 100% = plants have died, 0% = like control plants
Procedure, shortened: as §1

SETVI [19] = experiment: Pre-emergence action at 320 g/ha against SETVI; assay type: in vivo, Setaria viridis; conditions: visual scoring after about 3 weeks vs untreated controls
Procedure, shortened: as §2

AVEFA = experiment: Pre-emergence action at 320 g/ha against AVEFA; assay type: in vivo; conditions: visual scoring after about 3 weeks vs untreated controls
Procedure, shortened: as §2

ECHCG [20] = experiment: Post-emergence action against ECHCG, 1.28 kg/ha; assay type: in vivo, Echinochloa crus-galli; conditions: dosage 1280 g/ha, visual rating about 3 weeks after treatment vs untreated controls
Procedure, shortened: as §3

DIGSA [21] = experiment: Pre-emergence action at 320 g/ha against DIGSA; assay type: in vivo, Digitaria sanguinalis; conditions: visual scoring after about 3 weeks vs untreated controls
Procedure, shortened: as §2

DIGSA [22] = experiment: Pre-emergence action against DIGSA, 1280 g/ha; assay type: in vivo, Digitaria sanguinalis; conditions: visual scoring after about 3 weeks vs untreated controls, 100% = plants have died, 0% = like control plants
Procedure, shortened: as §1

ALOMY [23] = experiment: Post-emergence action against ALOMY, 1.28 kg/ha; assay type: in vivo, Alopecurus myosuroides; conditions: dosage 1280 g/ha, visual rating about 3 weeks after treatment vs untreated controls
Procedure, shortened: as §3

KCHSC [24] = experiment: Pre-emergence action against KCHSC, 1280 g/ha; assay type: in vivo, Bassia scoparia; conditions: scored visually after about 3 weeks vs untreated controls (100% = plants have died)
Procedure, shortened: as §1

POLCO = experiment: Pre-emergence action at 320 g/ha against POLCO; assay type: in vivo, Fallopia convolvulus (Polygonum convolvulus); conditions: visual scoring after about 3 weeks vs untreated controls
Procedure, shortened: as §2

PHBPU = experiment: Pre-emergence action at 320 g/ha against PHBPU; assay type: in vivo; conditions: visual scoring after about 3 weeks vs untreated controls
Source text: b) Seeds of monocotyledonous and dicotyledonous weed plants and crop plants are placed in plastic or organic planting pots and covered with soil. The compounds of the invention, formulated in the form of wettable powders (WP) or as emulsion concentrates (EC), are then applied onto the surface of the covering soil as aqueous suspension or emulsion with addition of 0.5% additive at a water application rate of 600 l/ha (converted). After the treatment, the pots are placed in a greenhouse and kept under good growth conditions for the trial plants. After about 3 weeks, the effect of the preparations is scored visually in comparison with untreated controls as percentages. For example, 100% activity=the plants have died, 0% activity=like control plants. Tables 13 to 26 below show the effects of selected compounds of the general formula (I) on various harmful plants and at an application rate corresponding to 320 g/ha, which were obtained by the experimental procedure mentioned above.

ECHGC = experiment: Pre-emergence action at 320 g/ha against ECHGC; assay type: in vivo, Echinochloa crus-galli; conditions: visual scoring after about 3 weeks vs untreated controls
Procedure, shortened: as §2

MATIN [25] = experiment: Pre-emergence action against MATIN, 1280 g/ha; assay type: in vivo, Tripleurospermum inodorum (Matricaria inodora); conditions: scored visually after about 3 weeks vs untreated controls (100% = plants have died)
Procedure, shortened: as §1

SETVI [26] = experiment: Post-emergence action against SETVI, 1.28 kg/ha; assay type: in vivo, Setaria viridis; conditions: dosage 1280 g/ha, visual rating about 3 weeks after treatment vs untreated controls
Procedure, shortened: as §3

ECHCG [27] = experiment: Pre-emergence action against ECHCG, 1280 g/ha; assay type: in vivo, Echinochloa crus-galli; conditions: visual scoring after about 3 weeks vs untreated controls, 100% = plants have died, 0% = like control plants
Procedure, shortened: as §1

ABUTH [28] = experiment: Post-emergence action against ABUTH, 1.28 kg/ha; assay type: in vivo, Abutilon theophrasti; conditions: dosage 1280 g/ha, visual rating about 3 weeks after treatment vs untreated controls (100% = plants died)
Procedure, shortened: as §3

ALOMY [29] = experiment: Pre-emergence action at 320 g/ha against ALOMY; assay type: in vivo, Alopecurus myosuroides; conditions: scored visually after about 3 weeks vs untreated controls (100% = plants have died)
Procedure, shortened: as §2

LOLRI [30] = experiment: Pre-emergence action at 320 g/ha against LOLRI; assay type: in vivo, Lolium rigidum; conditions: visual scoring after about 3 weeks vs untreated controls
Procedure, shortened: as §2

POAAN [31] = experiment: Pre-emergence action against POAAN, 1280 g/ha; assay type: in vivo, Poa annua; conditions: visual scoring after about 3 weeks vs untreated controls, 100% = plants have died, 0% = like control plants
Procedure, shortened: as §1

SMILES: O=C(COc1nn(-c2ccccc2F)c(-c2ccc(F)nc2)c1Br)O[C@H]1CCOC1=O [VII-064]
- Pre-emergence action against AMARE (AMARE [1]): 100%
- Pre-emergence action against VIOTR in % (VIOTR): 100%
- Pre-emergence action against AMARE in % (AMARE [2]): 100%
- Pre-emergence action against VERPE in % (VERPE [3]): 100%
- Post-emergence action against VERPE (VERPE [4]): 100%
- Pre-emergence action against ABUTH (ABUTH [5]): 90%
- Post-emergence action against LOLRI (LOLRI [6]): 100% and 90%
- Post-emergence action against POAAN (POAAN [7]): 100%
- Post-emergence action against MATIN (MATIN [8]): 100% and 90%
- Post-emergence action against KCHSC (KCHSC [9]): 90%
- Post-emergence action against DIGSA (DIGSA [10]): 100%
- Pre-emergence action against MATIN in % (MATIN [11]): 100%
- Post-emergence action against AMARE (AMARE [12]): 90% and 100%
- Pre-emergence action against LOLRI (LOLRI [13]): 100%
- Post-emergence action against STEME (STEME [14]): 100%
- Pre-emergence action against SETVI (SETVI [15]): 100%
- Pre-emergence action against STEME (STEME [16]): 100%
- Pre-emergence action against VERPE (VERPE [17]): 100%
- Pre-emergence action against ALOMY (ALOMY [18]): 100%
- Pre-emergence action against SETVI in % (SETVI [19]): 100%
- Pre-emergence action against AVEFA in % (AVEFA): 90%
- Post-emergence action against ECHCG (ECHCG [20]): 100%
- Pre-emergence action against DIGSA in % (DIGSA [21]): 100%
- Pre-emergence action against DIGSA (DIGSA [22]): 100%
- Post-emergence action against ALOMY (ALOMY [23]): 100%
- Pre-emergence action against KCHSC (KCHSC [24]): 100% and 90%
- Pre-emergence action against POLCO in % (POLCO): 90%
- Pre-emergence action against PHBPU in % (PHBPU): 90%
- Pre-emergence action against ECHGC in % (ECHGC): 100% and 90%
- Pre-emergence action against MATIN (MATIN [25]): 100%
- Post-emergence action against SETVI (SETVI [26]): 100% and 90%
- Pre-emergence action against ECHCG (ECHCG [27]): 100%
- Post-emergence action against ABUTH (ABUTH [28]): 90%
- Pre-emergence action at 320 g/ha against ALOMY in % (ALOMY [29]): 100%
- Pre-emergence action against LOLRI in % (LOLRI [30]): 100%
- Pre-emergence action against POAAN (POAAN [31]): 100%
